Holding throughout (format): cell-based, human
For assay [1], the system named is UM-UC-3 cells. The assay can be described thus: XTT cytotoxicity assay. The following applies: for viability at 1000 µM: Homo sapiens, 1 mM HU 20 hours, wash, untreated cells = 100%; for pEC50: read-out: EC50 (cell viability). On the procedure: Cells were washed in media to inactivate trypsin before reseeding or analysis.
Hydroxyurea concentrations were selected based upon concentration ranges known in the art.
XTT assay for cytotoxicity was then performed and plates were analyzed in an ELISA reader at a wave length of 490 nm.
Cells were pretreated with 1 mM HU (or DMSO-vehicle control) for 20 hours. […] The percentage of viable cells presented was calculated from untreated cells with viability of 100%.
UM-UC-3 cells were cultured in 96 well microculture plates. Cells were pretreated with 1 mM HU (or DMSO-vehicle control) for 20 hours. Cells were then washed. […] The percentage of viable cells presented was calculated from untreated cells with viability of 100%.
The methods used were as described in the other examples. Briefly, UM-UC-3 cells were cultured in 96 well microculture plates. Cells were pretreated with 1 mM HU (or DMSO-vehicle control) for 2 hours. […] The percentage of viable cells presented in the figures and table was calculated from untreated cells with viability of 100%.
Background: Tetrazolium dyes change colour on reduction, which living cells bring about.

The subject of assay [2] is RT-4 cells. The assay can be described thus: Cell cycle analysis by flow cytometry (PI staining) after HU exposure and withdrawal. Conditions: 1 mM HU for 20 hours, wash, 2-10 hours without drug, majority in S phase 4 to 8 hours after wash. As for the experimental part:
(§1) The human bladder cancer cell lines, UM-UC-3 and RT-4, were obtained from the ATCC and grown in RPMI 1640 medium (Gibco) supplemented with 10% v/v fetal calf serum (Gibco), 100 U/ml penicillin and 100 µg/ml streptomycin (Biological Industries). Cells were grown at 37° C., 5% CO2 in a humidified atmosphere and harvested using 0.25% w/v trypsin, 0.02% w/v EDTA. Cells were washed in media to inactivate trypsin before reseeding or analysis. A LSRII Flow cytometer or Cyan Flow Cytometer were used for determining DNA content and cell cycle distribution of UM-UC-3 and RT-4 cells. Cells were seeded in 6 well plates (10^6 cells/well) and incubated overnight. […] When sequential treatment was done, the second drug was administered immediately or 2-48 hours following the wash of the 1st treatment. The 2nd treatment was then applied for additional 2-48 hrs before analysis. […] PI staining was identified by using the red fluorescence (585+/−40 nm). In some experiments, cells harvested as for cell cycle determination were also stained with Annexin V or anti-activated Caspase-3 antibody for identifying apoptotic cells. Annexin V or activated Caspase-3 positive cells were identified using the green fluorescence (530+/−30 nm).
(In general: Flow cytometry measures light scatter and fluorescence of single cells or particles in a stream.)

Assay [3] has as its system UM-UC-3 cells. The assay is described as above. Conditions: 1 mM HU for 20 hours, wash, 2-10 hours without drug, majority in S phase 4 to 8 hours after wash. On the procedure:
as §1

pEC50: −log10 of the molar value. Like-named read-outs stand apart in the source and are kept apart here.

For `NC(=O)NO` [HU, Hydroxyurea], the viability – broadly, a read-out of living cells in per cent, often relative to untreated cells – at 1000 µM in assay [1] (UMUC3, Example 3: UM-UC-3, 20 μM MMC, XTT 24 hours after MMC addition) stood at 76.5%; in assay [1] (UMUC3, Example 4: UM-UC-3, 2 hours delay, 10 μM MMC 8 hours, XTT 48 hours after MMC addition), 59.6%. In addition, the “cell cycle arrest / synchronization in S phase” value in assay [2] and in assay [3] was “cell cycle synchronization at the S phase” each time.
As for `CO[C@@]12[C@H](COC(N)=O)C3=C(C(=O)C(C)=C(N)C3=O)N1C[C@@H]1N[C@@H]12` [MMC, Mitomycin C], the pEC50 (usually the negative decadic logarithm of the EC50, by convention in mol/L) in assay [1] (Example 3 conditions: UM-UC-3, MMC 24 hours, XTT) is around 4.70; in assay [1] (Example 4 conditions: UM-UC-3, MMC 8 hours, XTT 48 hours after MMC addition), 5.00.

The values are drawn from patent US9801854B1, “Slow release formulations of cell cycle regulators and anti-cancer agents for local treatment of solid cancer” (THERACOAT LTD., priority 2014, dated 2017).
